In patent publication US12503473B2, “Triazolopyrimidine compounds and their use in treating cancer” (Dizal (Jiangsu) Pharmaceutical Co., Ltd., priority 2018, dated 2025):

Assays:
[1] = tested on: MC38 MCT1 KO murine colorectal cell line; experiment: Mouse syngeneic model, αPD-1 antibody combination (second study, FIG. 5); assay type: in vivo, female C57·B16 mice; conditions: Day 13
Description: The in vivo efficacy of MCT4 inhibitors has been tested in murine syngeneic models. To test the selective impact of MCT4 inhibitors of Formula (I), MCT1 was knocked-out (KO) of the MC38 syngeneic cell line model using CRISPR precise genome editing. The MC38 MCT1 KO murine colorectal cell line can be grown sub-cutaneously in female C57·B16 mice and tumour volume calculated from bilateral caliper measurements. For efficacy studies, ten million cells were inoculated subcutaneously onto the left flank of the animal in a volume of 0.1 ml serum free DMEM media. Animals were randomised by bodyweight at the time of cell implantation and treatment started the following day. […] In both studies dosing was continued for up to 6 weeks and tumour volume, body weight and tumour condition were recorded three times weekly. […]
Again, individual tumour growth profiles are shown with animals taken off study using time to event criteria based on a maximum tumour volume of 1.5 cm^3, tumour condition or animal welfare limits. Due to animals reaching the time to event endpoint at different times during the later stages of the experiment GeoMean percentage inhibition values were calculated on Day 13.

[2] = tested on: NCI H358 subcutaneous xenograft; experiment: Human lung cancer xenograft model, VEGFR TKI combination; assay type: in vivo, female nude mice; conditions: combination of AZD2171 (3 mg/kg QD) with Example 62 (100 mg/kg BID), oral, 17 days; p<0.001 vs control, p=0.013 vs AZD2171 alone
Experimental: The in vivo efficacy of MCT4 inhibitors has been tested in human xenograft models. The NSCLC cell line NCI H358 can be grown as a subcutaneous xenograft in female nude mice and tumour volume calculated from bilateral caliper measurements. For efficacy studies three million NCI H358 cells were inoculated sub-cutaneously onto the left flank of the animal in a volume of 0.1 ml serum free media (RPMI) and matrigel. Animals were assigned into treatment groups 14 days after cell implantation and received either AZD2171 (3 mg/kg QD) (Wedge et al., (2005) Cancer Res. 65:4389-4400), a compound of Formula (I) (100 mg/kg BID) or the combination of both by oral gavage. A vehicle control of 0.5% hydroxy propyl methyl cellulose/0.1% Tween 80 was dosed twice daily given orally. Dosing was continued for 17 days and tumour volume, body weight and tumour condition were recorded twice weekly for the duration of the study.

[3] = tested on: MC38 MCT1 KO murine colorectal cell line; experiment: Mouse syngeneic model, αCTLA4 antibody combination (first study, FIG. 4); assay type: in vivo, female C57·B16 mice; conditions: Day 15
Description: The in vivo efficacy of MCT4 inhibitors has been tested in murine syngeneic models. To test the selective impact of MCT4 inhibitors of Formula (I), MCT1 was knocked-out (KO) of the MC38 syngeneic cell line model using CRISPR precise genome editing. The MC38 MCT1 KO murine colorectal cell line can be grown sub-cutaneously in female C57·B16 mice and tumour volume calculated from bilateral caliper measurements. For efficacy studies, ten million cells were inoculated subcutaneously onto the left flank of the animal in a volume of 0.1 ml serum free DMEM media. Animals were randomised by bodyweight at the time of cell implantation and treatment started the following day. In the first of these studies shown in FIG. 4, monotherapy treatment arms received either a compound of Formula (I) (100 mg/kg BID) by oral gavage or αCTLA4 antibody (anti-CTLA-4 9D9 mlgG1 antibody, described in WO200712373) (10 mg/kg twice weekly) intraperitoneally. Combination groups consisted of a compound of Formula (I) (100 or 10 mg/kg PO BID) with αCTLA4 antibody (10 mg/kg IP twice weekly). In the second of these studies shown in FIG. 5, monotherapy treatment arms received either a compound of Formula (I) (30 mg/kg PO BID) with αPD-1 antibody (from Bio X Cell, Catalogue #BE0146, Lot 665417s1, 6.78 mg/mL) (10 mg/kg IP twice weekly). In both studies dosing was continued for up to 6 weeks and tumour volume, body weight and tumour condition were recorded three times weekly. Vehicle was 0.5% hydroxy propyl methyl cellulose/0.1% Tween 80 given twice daily by oral gavage with PBS/a given twice weekly intraperitoneally in both studies.
Individual tumour growth profiles are shown with animals taken off study using time to event criteria based on a maximum tumour volume of 1.5 cm^3, tumour condition or animal welfare limits. Due to animals coming off study during the later stages of the experiment, GeoMean percentage inhibition values were calculated on Day 15. […] Monotherapy αCTLA4 (10 mg/kg) was ineffective with 6.1%^NS.

MCT1 = target: T1, MCT1 (Homo sapiens, UniProt P53985); experiment: Assay (c): FLIPR BCECF lactate influx in K562 cells; assay type: cell-based; conditions: mean of at least three repeats, read-out: MCT1 FLIPR pIC50 (K562) (converted)
T1 construct: a human erythroleukemia line predominantly expressing MCT1, a small amount of MCT2 and no MCT4; host or cells: K562
T1 sequence (P53985 1-500): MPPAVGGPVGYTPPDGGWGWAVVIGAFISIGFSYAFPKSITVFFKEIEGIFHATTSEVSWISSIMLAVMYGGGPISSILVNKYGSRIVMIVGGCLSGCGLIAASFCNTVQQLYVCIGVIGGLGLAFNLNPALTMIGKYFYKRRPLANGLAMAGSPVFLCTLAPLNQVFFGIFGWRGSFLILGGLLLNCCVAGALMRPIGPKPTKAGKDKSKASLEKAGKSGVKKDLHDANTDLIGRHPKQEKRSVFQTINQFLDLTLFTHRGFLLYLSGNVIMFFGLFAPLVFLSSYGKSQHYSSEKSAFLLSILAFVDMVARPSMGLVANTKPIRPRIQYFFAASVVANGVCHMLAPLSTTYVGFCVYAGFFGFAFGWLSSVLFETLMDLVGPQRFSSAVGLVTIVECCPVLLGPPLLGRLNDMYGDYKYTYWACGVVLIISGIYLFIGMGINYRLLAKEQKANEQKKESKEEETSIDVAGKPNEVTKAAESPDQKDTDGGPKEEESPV
Experimental: Cells were loaded with the pH sensitive dye BCECFAM(Invitrogen #B11150) before being washed to remove excess dye and seeded into the assay plates—directly onto the test compound—at a density of 15,000 cells/well (NCI—H358) or 30,000 cells/well (K562), in 30 μl HBSS with 1 mM [final] […] Assay plates were lidded and spun in a plate centrifuge at 170 g for 1 minute. Plates were then wrapped in foil and incubated in the dark for 1 hour at room temperature.
Following incubation with test compound, 10 μl of 25 mM Sodium-L-Lactate (Sigma #L7022) made up in HBSS with 1 mM [final] […] This addition was performed directly on the FLIPR Tetra platform (Molecular Devices) as part of a real-time kinetic read protocol. […] A percentage change from base-line was calculated for each test well and values normalised to control wells—treated with either DMSO (maximum assay signal) or chemistry related to that described in this patent (minimum assay signal)—before fitting concentration response curves to determine an IC50 value.

IC50 (MCT1): > 25.1 µM
SMILES: Cc1nc2nc(C)c(O[C@@H]3CCN(c4ccc(-c5ccc(CN6CCOCC6)nn5)cc4)C3)c(C)n2n1 [Example 62, (R)-4-((6-(4-(3-((2,5,7-trimethyl-[1,2,4]triazolo[1,5-a]pyrimidin-6-yl)oxy)pyrrolidin-1-yl)phenyl)pyridazin-3-yl)methyl)morpholine]
GeoMean percentage growth inhibition vs vehicle control ([1]; Example 62 30 mg/kg PO BID with αPD-1 antibody 10 mg/kg IP twice weekly, p≤0.001): 82.3%
GeoMean percentage growth inhibition vs vehicle control ([1]; Example 62 monotherapy 30 mg/kg PO BID, NS): 30.1%
tumour regression [2]: 72%
GeoMean percentage growth inhibition vs vehicle control ([3]; Example 62 10 mg/kg PO BID with αCTLA4 antibody 10 mg/kg IP twice weekly, p≤0.01): 67.4%
GeoMean percentage growth inhibition vs vehicle control ([3]; Example 62 100 mg/kg PO BID with αCTLA4 antibody 10 mg/kg IP twice weekly, p≤0.001, p=0.0311 vs Example 62 alone): 82.2%
GeoMean percentage growth inhibition vs vehicle control ([3]; Example 62 monotherapy 100 mg/kg BID PO, p≤0.05): 60.0%
